In ChEMBL document CHEMBL1201862, “PubChem BioAssay data set” (2004):
“And” between values parts separate entries of the source, which are not always exact repeats. Equal values may be shown once. Each block holds one compound with its values, some of them ahead of it. The source made the active and inactive calls.

Assays:
Phospholipase A2 = Phospholipase A2 (Homo sapiens, UniProt P04054); type: functional;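 also: confirmatory dose-response counterscreen on phospholipase A2, testing hits that came from an ultra-high-throughput screen for ATG4B inhibitors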
Phospholipase A2, sequence (P04054 whole entry, the tested form may be a part): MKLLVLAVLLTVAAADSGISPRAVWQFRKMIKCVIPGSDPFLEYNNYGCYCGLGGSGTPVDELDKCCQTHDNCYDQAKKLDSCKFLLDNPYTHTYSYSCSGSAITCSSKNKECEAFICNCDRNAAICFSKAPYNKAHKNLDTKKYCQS

[1] = target: Nucleotide-binding oligomerization domain-containing protein 2 (Homo sapiens, UniProt Q9HC29); experiment: NOD2 signaling inhibitors, cell-based, luminescence, uHTS, HEK293 (AID 1566); type: functional
HEK293 = experiment: cells; type: functional, cell-based; conditions: Homo sapiens
[2] = target: Peroxisome proliferator-activated receptor gamma/Nuclear receptor corepressor 2 (Homo sapiens, UniProt P37231+Q9Y618); type: functional
[3] = target: Casein kinase I isoform alpha (Homo sapiens, UniProt P48729); type: functional
[4] = target: Serine/threonine-protein kinase 17A (Homo sapiens, UniProt Q9UEE5); type: functional
[5] = target: Proto-oncogene tyrosine-protein kinase Src (Homo sapiens, UniProt P12931); type: functional;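 also: SRC entry within a kinome-wide kinase profiling panel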
[6] = target: Serine/threonine-protein kinase BRSK1 (Homo sapiens, UniProt Q8TDC3); type: functional;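 also: measured within a kinome-wide kinase panel, with the target listed as KIAA1811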
Serine/threonine-protein kinase BRSK1, sequence (Q8TDC3 whole entry): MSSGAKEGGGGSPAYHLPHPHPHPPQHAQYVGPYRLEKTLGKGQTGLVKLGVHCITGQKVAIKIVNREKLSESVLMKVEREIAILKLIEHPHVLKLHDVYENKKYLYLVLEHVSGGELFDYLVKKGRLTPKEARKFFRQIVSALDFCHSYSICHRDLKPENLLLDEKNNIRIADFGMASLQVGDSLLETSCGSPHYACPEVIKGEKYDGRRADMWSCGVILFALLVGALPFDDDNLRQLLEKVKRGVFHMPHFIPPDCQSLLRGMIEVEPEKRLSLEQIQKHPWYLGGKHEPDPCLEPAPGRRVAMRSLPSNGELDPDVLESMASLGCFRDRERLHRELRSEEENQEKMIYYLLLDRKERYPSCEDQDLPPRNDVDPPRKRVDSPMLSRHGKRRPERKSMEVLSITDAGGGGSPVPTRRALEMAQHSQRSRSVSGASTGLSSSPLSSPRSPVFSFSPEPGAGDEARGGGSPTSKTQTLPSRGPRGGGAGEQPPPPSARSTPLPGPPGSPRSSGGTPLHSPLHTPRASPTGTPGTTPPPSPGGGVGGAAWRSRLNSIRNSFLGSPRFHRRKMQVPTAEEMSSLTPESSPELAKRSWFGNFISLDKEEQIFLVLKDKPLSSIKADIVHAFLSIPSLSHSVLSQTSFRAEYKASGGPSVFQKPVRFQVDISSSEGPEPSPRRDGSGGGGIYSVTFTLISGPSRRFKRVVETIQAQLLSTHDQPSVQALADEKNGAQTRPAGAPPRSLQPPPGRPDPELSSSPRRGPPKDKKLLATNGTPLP

[7] = target: Protein-tyrosine kinase 6 (Homo sapiens, UniProt Q13882); type: functional
[8] = target: Tyrosine-protein kinase receptor TYRO3 (Homo sapiens, UniProt Q06418); type: functional;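 also: TYRO3 value obtained as one member of a kinome-wide profiling panel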
[9] = target: Casein kinase II subunit alpha (Homo sapiens, UniProt P68400); type: functional
Casein kinase II subunit alpha, sequence (P68400 whole entry): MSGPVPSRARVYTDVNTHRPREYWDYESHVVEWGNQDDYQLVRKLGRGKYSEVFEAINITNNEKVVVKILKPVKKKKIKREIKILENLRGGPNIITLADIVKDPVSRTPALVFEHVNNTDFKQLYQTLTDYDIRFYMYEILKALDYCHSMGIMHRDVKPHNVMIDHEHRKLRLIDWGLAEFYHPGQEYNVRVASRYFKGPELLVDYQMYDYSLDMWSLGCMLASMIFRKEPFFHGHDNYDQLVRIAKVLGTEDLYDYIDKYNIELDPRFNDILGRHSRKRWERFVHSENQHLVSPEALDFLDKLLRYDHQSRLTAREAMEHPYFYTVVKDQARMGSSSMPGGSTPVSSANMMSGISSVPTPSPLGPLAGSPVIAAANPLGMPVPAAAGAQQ

[10] = target: Tyrosine-protein kinase Lck (Homo sapiens, UniProt P06239); type: functional;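 also: lck was assayed as one member of a kinase panel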
[11] = target: Ribosomal protein S6 kinase alpha-5 (Homo sapiens, UniProt O75582); type: functional
[12] = target: G protein-coupled receptor kinase 5 (Homo sapiens, UniProt P34947); experiment: Navigating the Kinome. Panel member name: GPRK5; type: functional
[13] = target: Serine/threonine-protein kinase pim-3 (Homo sapiens, UniProt Q86V86); type: functional;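 also: value obtained as one member of a broad kinase panel profiling effort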
[14] = target: Serine/threonine-protein kinase D3 (Homo sapiens, UniProt O94806); type: functional;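 also: determined within a kinase panel screen, with PRKCN as the panel member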
Serine/threonine-protein kinase D3, sequence (O94806 whole entry): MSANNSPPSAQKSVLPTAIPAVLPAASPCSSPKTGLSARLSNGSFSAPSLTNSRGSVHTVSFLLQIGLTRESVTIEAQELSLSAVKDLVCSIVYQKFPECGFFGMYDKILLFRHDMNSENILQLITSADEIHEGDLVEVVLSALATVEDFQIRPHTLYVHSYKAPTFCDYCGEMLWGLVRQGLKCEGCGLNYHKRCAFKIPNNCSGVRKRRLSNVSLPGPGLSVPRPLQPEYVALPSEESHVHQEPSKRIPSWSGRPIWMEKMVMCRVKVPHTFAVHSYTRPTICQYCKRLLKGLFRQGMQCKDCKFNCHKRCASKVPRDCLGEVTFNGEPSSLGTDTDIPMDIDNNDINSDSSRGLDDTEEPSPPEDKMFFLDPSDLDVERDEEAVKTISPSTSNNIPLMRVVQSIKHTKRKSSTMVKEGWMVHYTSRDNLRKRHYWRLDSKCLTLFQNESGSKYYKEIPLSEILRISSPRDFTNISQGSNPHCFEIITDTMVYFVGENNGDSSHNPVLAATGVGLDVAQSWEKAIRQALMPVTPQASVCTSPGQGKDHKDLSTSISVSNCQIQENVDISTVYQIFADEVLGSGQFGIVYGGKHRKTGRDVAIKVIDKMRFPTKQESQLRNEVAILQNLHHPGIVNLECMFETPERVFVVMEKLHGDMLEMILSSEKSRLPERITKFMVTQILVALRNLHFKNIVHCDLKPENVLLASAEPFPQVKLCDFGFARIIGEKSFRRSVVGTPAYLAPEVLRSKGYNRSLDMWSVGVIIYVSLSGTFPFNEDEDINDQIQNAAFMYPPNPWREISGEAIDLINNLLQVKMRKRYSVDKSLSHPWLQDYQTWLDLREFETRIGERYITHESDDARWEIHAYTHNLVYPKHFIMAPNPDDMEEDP

[15] = target: Protein kinase C zeta type (Homo sapiens, UniProt Q05513); type: functional;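 also: measured as one member of a broad kinase profiling panel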
[16] = target: Ribosomal protein S6 kinase beta-1 (Homo sapiens, UniProt P23443); type: functional;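 also: measured as one member of a kinome-wide profiling panel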
Ribosomal protein S6 kinase beta-1, sequence (P23443 whole entry): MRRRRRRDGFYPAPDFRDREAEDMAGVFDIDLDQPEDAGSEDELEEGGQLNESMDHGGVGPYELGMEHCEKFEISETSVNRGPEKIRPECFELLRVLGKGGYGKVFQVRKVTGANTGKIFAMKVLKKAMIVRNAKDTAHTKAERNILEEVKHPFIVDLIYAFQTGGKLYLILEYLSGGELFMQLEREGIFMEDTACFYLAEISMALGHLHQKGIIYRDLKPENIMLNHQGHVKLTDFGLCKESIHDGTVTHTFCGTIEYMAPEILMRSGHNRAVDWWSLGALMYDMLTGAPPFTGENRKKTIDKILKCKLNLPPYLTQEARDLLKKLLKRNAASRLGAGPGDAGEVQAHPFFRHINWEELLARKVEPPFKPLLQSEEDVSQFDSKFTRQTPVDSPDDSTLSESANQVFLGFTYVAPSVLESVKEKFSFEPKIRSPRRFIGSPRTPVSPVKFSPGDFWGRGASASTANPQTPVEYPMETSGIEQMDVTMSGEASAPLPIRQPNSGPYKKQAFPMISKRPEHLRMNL

[17] = target: Cyclin-dependent kinase 5 (Homo sapiens, UniProt Q00535); type: functional;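 also: CDK5 measured as one member of a kinase profiling panel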
Cyclin-dependent kinase 5, sequence (Q00535 whole entry): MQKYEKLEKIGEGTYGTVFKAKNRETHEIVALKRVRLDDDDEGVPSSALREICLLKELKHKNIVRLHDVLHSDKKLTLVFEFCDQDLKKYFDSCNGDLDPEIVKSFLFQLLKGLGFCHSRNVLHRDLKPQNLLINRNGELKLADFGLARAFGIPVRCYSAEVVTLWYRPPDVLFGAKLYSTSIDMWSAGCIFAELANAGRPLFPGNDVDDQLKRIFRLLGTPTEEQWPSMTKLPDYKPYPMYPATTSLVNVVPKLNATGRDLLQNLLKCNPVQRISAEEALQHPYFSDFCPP

[18] = target: MAP kinase-activated protein kinase 5 (Homo sapiens, UniProt Q8IW41); type: functional;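 also: measured as one member of a kinome panel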
[19] = target: Dual specificity protein kinase CLK2 (Homo sapiens, UniProt P49760); type: functional
Misshapen-like kinase 1 = Misshapen-like kinase 1 (Homo sapiens, UniProt Q8N4C8); type: functional;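 also: kinome panel screen with MINK as the panel member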
Misshapen-like kinase 1, sequence (Q8N4C8 whole entry): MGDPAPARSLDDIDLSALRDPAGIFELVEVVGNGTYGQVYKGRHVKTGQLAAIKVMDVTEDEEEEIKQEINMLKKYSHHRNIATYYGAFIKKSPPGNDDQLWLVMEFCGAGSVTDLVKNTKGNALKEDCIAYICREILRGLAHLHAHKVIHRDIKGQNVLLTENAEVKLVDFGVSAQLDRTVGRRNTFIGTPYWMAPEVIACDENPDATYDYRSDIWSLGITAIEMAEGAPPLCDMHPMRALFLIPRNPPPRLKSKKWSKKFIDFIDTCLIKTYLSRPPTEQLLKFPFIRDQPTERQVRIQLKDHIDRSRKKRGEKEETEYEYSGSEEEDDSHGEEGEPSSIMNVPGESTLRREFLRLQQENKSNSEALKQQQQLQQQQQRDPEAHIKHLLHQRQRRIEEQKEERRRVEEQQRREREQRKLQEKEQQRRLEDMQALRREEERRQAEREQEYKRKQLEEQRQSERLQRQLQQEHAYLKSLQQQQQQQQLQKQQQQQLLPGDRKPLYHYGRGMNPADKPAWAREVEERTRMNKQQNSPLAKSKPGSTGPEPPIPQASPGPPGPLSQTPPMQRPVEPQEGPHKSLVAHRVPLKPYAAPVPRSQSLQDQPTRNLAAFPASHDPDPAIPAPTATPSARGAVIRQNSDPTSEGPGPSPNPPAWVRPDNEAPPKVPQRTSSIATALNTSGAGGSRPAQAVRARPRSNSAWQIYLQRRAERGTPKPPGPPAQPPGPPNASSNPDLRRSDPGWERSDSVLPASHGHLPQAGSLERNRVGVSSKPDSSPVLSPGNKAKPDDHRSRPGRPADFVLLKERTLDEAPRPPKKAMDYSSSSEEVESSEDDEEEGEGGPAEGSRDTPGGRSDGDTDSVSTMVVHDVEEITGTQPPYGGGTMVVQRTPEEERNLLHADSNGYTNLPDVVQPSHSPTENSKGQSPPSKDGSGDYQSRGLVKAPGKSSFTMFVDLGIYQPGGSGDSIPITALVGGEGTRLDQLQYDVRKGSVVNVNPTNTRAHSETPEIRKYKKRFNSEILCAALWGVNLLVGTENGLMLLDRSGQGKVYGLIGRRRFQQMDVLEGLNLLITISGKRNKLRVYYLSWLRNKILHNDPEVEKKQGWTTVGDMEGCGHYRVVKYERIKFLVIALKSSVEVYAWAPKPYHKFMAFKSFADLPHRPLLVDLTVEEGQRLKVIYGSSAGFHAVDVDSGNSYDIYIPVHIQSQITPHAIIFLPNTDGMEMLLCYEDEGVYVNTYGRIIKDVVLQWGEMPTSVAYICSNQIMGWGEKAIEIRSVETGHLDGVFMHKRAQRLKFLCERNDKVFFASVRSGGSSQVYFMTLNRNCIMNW

[20] = target: Calcium/calmodulin-dependent protein kinase type II subunit gamma (Homo sapiens, UniProt Q13555); type: functional
Calcium/calmodulin-dependent protein kinase type II subunit gamma, sequence (Q13555 whole entry): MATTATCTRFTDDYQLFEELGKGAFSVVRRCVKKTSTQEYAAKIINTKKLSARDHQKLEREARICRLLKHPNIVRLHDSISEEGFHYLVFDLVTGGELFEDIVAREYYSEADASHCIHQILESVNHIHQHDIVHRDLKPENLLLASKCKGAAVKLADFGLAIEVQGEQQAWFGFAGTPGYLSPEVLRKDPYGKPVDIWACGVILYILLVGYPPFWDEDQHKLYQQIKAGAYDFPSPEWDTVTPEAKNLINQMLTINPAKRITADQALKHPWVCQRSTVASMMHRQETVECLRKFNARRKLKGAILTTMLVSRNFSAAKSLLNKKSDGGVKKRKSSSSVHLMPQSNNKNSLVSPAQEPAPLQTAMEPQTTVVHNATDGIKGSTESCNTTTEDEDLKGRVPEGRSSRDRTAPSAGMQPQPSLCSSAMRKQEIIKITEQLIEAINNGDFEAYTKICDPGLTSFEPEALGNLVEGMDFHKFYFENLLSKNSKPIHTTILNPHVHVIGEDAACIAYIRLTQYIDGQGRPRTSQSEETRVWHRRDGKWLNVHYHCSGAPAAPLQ

[21] = target: Fibroblast growth factor receptor 3 (Homo sapiens, UniProt P22607); type: functional
[22] = target: Tyrosine-protein kinase Blk (Homo sapiens, UniProt P51451); type: functional;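 also: obtained as one member of a kinome-wide kinase assay panel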
[23] = target: Serine/threonine-protein kinase pim-2 (Homo sapiens, UniProt Q9P1W9); type: functional;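 also: value comes from a broad kinase panel profiling study in which PIM2 was one of the panel members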
[24] = target: Platelet-derived growth factor receptor beta (Homo sapiens, UniProt P09619); type: functional;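 also: value comes from a kinome panel, with PDGFRB tested as one panel member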
[25] = target: RAC-gamma serine/threonine-protein kinase (Homo sapiens, UniProt Q9Y243); type: functional
[26] = NIH-3T3 fibroblast cytotoxicity, dose response, cytotoxicity control, cell-based, fluorescence, Alamar Blue, secondary assay (AID 2327); type: functional;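 also: NIH-3T3 mouse fibroblasts cultured with fluconazole at 8 µg/mL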
[27] = cytotoxicity toward HCT116 cells – cell-based, CellTiter-Glo luminescence, IC50, dose response (AID 1117332); type: functional; conditions: HCT-116
[28] = cytotoxicity toward Colo320 cells – cell-based, CellTiter-Glo luminescence, IC50, dose response (AID 1117334); type: functional; conditions: COLO 320
[29] = target: T1, Calpain-2 catalytic subunit (Sus scrofa, UniProt P43367); experiment: pig calpain II inhibitor potency, dose response, biochemical, fluorogenic peptide substrate (AID 1420); type: functional
T1 sequence (P43367 whole entry): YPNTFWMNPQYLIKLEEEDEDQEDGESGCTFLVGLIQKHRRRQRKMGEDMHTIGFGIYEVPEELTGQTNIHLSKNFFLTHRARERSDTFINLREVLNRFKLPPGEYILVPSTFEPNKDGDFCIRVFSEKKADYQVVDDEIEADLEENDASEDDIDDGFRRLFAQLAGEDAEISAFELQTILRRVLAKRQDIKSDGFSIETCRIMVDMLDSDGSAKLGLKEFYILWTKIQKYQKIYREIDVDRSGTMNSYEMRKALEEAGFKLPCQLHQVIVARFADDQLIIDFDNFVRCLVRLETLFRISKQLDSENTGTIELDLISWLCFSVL

[30] = C. albicans growth with fluconazole, confirmation, fluorescence, retest (AID 2467); type: functional, cell-based

SMILES: O=C1C=C(N2CCOCC2)c2ccccc2C1=O
IC50 (Phospholipase A2): > 80 µM (inactive)
EC50 [1]: 13.3 µM (active)
IC50 (HEK293): 9.46 µM (active)
IC50 [2]: > 39.8 µM (not active)

Ki [3]: > 5.01 µM (inactive)
Ki [4]: 0.501 µM (active)
Ki [5]: > 2 µM (inactive)
Ki [6]: > 7.94 µM (inactive)
Ki [7]: > 2.51 µM (inactive)
Ki [8]: > 2.51 µM (inactive)
Ki [9]: > 6.31 µM (inactive)
Ki [10]: > 5.01 µM (inactive)
Ki [11]: > 2 µM (inactive)
Ki [12]: > 3.98 µM (inactive)
Ki [13]: 3.98 µM (active)
Ki [14]: > 5.01 µM (inactive)
Ki [15]: > 7.94 µM (inactive)
Ki [16]: > 6.31 µM (inactive)
Ki [17]: 0.398 µM (active)
Ki [18]: > 1.58 µM (inactive)
Ki [19]: > 5.01 µM (inactive)
Ki (Misshapen-like kinase 1): 6.31 µM (active)
Ki [20]: 5.01 µM (active)
Ki [21]: > 2 µM (inactive)
Ki [22]: > 1.58 µM (inactive)
Ki [23]: > 1.58 µM (inactive)
Ki [24]: > 2 µM (inactive)
Ki [25]: > 10 µM (inactive)
SMILES: N#Cc1ccc2[nH]c(O)c(-c3ccc(CN4CCOCC4)cn3)c2c1 [AZD-1080]

SMILES: CCc1oc2ccccc2c1C(=O)c1cc(Br)c(O)c(Br)c1 [BENZBROMARONE]
EC50 [26]: > 160 µM (inactive)
IC50 [27]: 1.06 µM (active)
IC50 [28]: > 20 µM (inactive)
IC50 [29]: 7.97 µM (not active) and 4.88 µM (not active)
EC50 [30]: 0.059 µM (active)
